Like-named read-outs stand apart in the source and are kept apart here.
Assays:
[1] = rat, plasma, 2 h
Protocol: (§1) To a portion of compound (50 μl, 10 MBq/ml) was added an equal volume of plasma (rat or human) or saline. The mixtures were incubated at 37° C. and the stability measured by HPLC (system C) at 0, 30 and 120 minutes. The saline dilution acted as a control.

[2] = human, plasma, 2 h
Protocol: as §1

[3] = target: T1, fibrin (in vitro human plasma clot) (Homo sapiens, UniProt P02671+P02675+P02679); test: Incorporation into human plasma clots in vitro; assay type: biochemical; conditions: for % specific uptake: % retained (with thrombin) - % retained (no thrombin); for % retained (no thrombin): control without thrombin and calcium chloride (non-specific binding); for % retained (with thrombin): human plasma clot, 60 minutes, ca. 20° C.
T1 construct: about 400 μl of human plasma containing the radiolabelled substrate; from tissue; host or cells: human plasma, clotted in vitro with added thrombin and calcium chloride
T1 sequence (P02671 20-644 isoform P02671-2 limits assumed): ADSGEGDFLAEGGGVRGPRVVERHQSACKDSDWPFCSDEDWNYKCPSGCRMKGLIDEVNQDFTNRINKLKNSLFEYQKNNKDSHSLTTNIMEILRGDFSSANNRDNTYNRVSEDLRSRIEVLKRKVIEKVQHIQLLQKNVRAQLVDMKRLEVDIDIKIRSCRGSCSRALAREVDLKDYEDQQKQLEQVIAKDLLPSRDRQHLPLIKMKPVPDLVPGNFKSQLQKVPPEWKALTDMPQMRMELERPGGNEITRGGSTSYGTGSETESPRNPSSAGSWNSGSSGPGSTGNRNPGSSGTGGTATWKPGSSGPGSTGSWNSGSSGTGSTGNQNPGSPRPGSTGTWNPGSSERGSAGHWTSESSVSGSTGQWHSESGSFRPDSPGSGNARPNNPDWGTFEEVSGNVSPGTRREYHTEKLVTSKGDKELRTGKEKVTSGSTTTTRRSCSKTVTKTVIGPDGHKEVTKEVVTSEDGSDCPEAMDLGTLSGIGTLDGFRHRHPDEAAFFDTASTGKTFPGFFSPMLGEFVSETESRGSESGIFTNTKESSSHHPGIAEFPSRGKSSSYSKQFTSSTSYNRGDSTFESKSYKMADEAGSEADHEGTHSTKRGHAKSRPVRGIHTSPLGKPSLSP
T1 sequence (P02675 45-491 limits assumed): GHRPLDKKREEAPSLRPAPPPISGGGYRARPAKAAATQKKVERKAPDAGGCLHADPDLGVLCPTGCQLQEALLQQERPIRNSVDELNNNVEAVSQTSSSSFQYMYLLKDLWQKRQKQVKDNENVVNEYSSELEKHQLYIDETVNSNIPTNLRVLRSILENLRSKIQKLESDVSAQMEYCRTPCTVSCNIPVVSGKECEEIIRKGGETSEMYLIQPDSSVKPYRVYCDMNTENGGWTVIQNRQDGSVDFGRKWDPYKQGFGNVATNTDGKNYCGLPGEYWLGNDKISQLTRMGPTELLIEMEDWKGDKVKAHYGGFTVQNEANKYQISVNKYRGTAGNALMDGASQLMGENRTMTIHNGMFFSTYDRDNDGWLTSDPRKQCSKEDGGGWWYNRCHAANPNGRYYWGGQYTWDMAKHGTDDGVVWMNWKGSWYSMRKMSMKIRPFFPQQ
T1 sequence (P02679 27-437 isoform P02679-2 limits assumed): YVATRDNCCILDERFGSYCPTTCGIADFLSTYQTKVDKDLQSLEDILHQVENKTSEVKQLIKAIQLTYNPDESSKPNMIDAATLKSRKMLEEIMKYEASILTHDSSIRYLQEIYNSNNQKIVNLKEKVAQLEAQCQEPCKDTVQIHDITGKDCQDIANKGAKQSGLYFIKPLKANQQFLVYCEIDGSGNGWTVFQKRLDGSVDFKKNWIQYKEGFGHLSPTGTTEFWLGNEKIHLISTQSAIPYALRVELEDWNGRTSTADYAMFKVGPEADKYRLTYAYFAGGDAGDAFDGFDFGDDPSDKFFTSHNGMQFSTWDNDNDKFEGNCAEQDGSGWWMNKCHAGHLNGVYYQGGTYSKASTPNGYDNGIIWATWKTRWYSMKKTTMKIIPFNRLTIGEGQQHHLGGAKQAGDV
Procedure, shortened: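 Fibrin incorporation is expressed as the fraction of total radioactivity retained with filtered clots, corrected for non-specific binding in controls lacking thrombin and calcium chloride. Clotting was induced by thrombin in Ca2+-containing Tris-buffered saline (pH 7.5) with human plasma carrying about 10 kBq/ml tracer, for 60 min at ambient temperature before EDTA quench.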

[4] = Incorporation into clots induced in a rat model (rat inferior vena cava model); assay type: in vivo, rat (Male Wistar); conditions: for % id/g (clot) / Rel. Conc. (cpm/g of clot by dose/g animal): sacrificed after 60 min
Procedure, shortened: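 Male Wistar rats (250–350 g) under 15% urethane anaesthesia, with the vena cava isolated by laparotomy. Compounds given 5 min (fresh clot) or 60 min (aged clot) after clot induction; clot, blood, lung and heart removed 60 min later, weighed and counted. Uptake expressed as cpm/g clot per dose/g animal and as clot-to-background tissue ratio.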

[5] = Aged Clots: injected 60 min post-induction
[6] = Fresh Clots: injected 5 min post-induction

Row | % intact at 120 mins [1] | % intact at 120 mins [2] | % specific uptake [3] | % retained (no thrombin) [3] | % retained (with thrombin) [3] | in vitro clot uptake (in words) ([3]; in vitro clot) | Substance | Clot/blood ([4]; Aged Clots) | Clot/heart ([4]; Aged Clots) | Clot/liver ([4]; Aged Clots) | Clot/lung ([4]; Aged Clots) | % id/g (clot) [4, 5] | Rel. Conc. (cpm/g of clot by dose/g animal) [4, 5] | Clot/blood ([4]; Fresh Clots) | Clot/heart ([4]; Fresh Clots) | Clot/liver ([4]; Fresh Clots) | Clot/lung ([4]; Fresh Clots) | % id/g (clot) [4, 6] | Rel. Conc. (cpm/g of clot by dose/g animal) [4, 6]
1 | >90% | >90% | 40.6% | 0.7% | 41.3% | – | Ac-NQEQVG-Pn44 [^99mTc-Cmpd 17] | 3 | 7 | 3 | 5 | 0.8 ± 0.1 % id/g | 2.7 ± 0.6 | 7 | 18 | 5 | 12 | 1.2 ± 0.7 % id/g | 3.7 ± 2.3
2 | >90% | >90% | 12.4% | 0.1% | 12.5% | significant reduction in uptake | Ac-NQG-Pn44 [^99mTc-Cmpd 16] | – | – | – | – | – | – | 3 | 8 | 0.8 | 3 | 0.3 ± 0.1 % id/g | 1.0 ± 0.2

Row | Substance | % intact at 120 mins [1] | % intact at 120 mins [2] | % specific uptake [3] | % retained (no thrombin) [3] | % retained (with thrombin) [3] | in vitro clot uptake (in words) ([3]; in vitro clot) | Clot/blood ([4]; Aged Clots) | Clot/heart ([4]; Aged Clots) | Clot/liver ([4]; Aged Clots) | Clot/lung ([4]; Aged Clots) | % id/g (clot) [4, 5] | Rel. Conc. (cpm/g of clot by dose/g animal) [4, 5] | Clot/blood ([4]; Fresh Clots) | Clot/heart ([4]; Fresh Clots) | Clot/liver ([4]; Fresh Clots) | Clot/lung ([4]; Fresh Clots) | % id/g (clot) [4, 6] | Rel. Conc. (cpm/g of clot by dose/g animal) [4, 6]
3 | Ac-NQEQVSPYTLLKG-Hynic (also: 99mTc complex) [^99mTc-Cmpd 4] | >90% | >90% | 21.0% | 0.1% | 22.0% | – | 8 | 19 | 19 | 10 | 1.2 ± 1.1 % id/g | 4.1 ± 4.0 | 6 | 15 | 20 | 8 | 2.0 ± 0.6 % id/g | 6.5 ± 2.0

Reference: US7049289B1, “Labelled glutamine and lysine analogues” (Amersham PLC, priority 1998, dated 2006)
